For one test, the target named is T1, human A2B receptors (Homo sapiens, UniProt P29275).
T1 construct: expressed in transfected cells; host or cells: HEK293
T1 sequence (P29275 1-332): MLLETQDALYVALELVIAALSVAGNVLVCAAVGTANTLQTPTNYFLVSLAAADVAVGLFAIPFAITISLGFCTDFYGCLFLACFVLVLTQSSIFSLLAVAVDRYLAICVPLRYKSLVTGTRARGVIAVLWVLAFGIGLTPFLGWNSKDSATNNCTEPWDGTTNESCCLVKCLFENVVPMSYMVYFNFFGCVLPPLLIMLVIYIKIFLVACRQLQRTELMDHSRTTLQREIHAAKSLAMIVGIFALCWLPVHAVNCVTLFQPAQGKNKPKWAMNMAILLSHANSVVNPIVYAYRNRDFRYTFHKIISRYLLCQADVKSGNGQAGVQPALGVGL
Put plainly: Functional human A2B receptor activity, recombinant HEK293 cells, cAMP (HTRF). The conditions noted are these: read-out: A2B (Category). Format: cell-based. Put shortly:
(§1)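 15 min incubation → HTRF cAMP reagents added → cellular cAMP read on plate reader. cAMP serves as adenosine receptor second messenger.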
In general terms: Time-resolved FRET reads energy transfer from a long-lived donor to a nearby acceptor.

Another test concerns the target T2, human A2A receptors (Homo sapiens, UniProt P29274).
T2 construct: expressed in transfected cells; host or cells: HEK293
As to the kind of experiment: Functional human A2A receptor activity, recombinant HEK293 cells, cAMP (HTRF). The class given is cell-based. The conditions noted are these: read-out: A2A (Category). Summed up: as §1

pIC50: −log10 of the molar value. Where two headings read alike, the source gives them in different places. Some results are limits rather than exact numbers.

T2 sequence (P29274 whole entry): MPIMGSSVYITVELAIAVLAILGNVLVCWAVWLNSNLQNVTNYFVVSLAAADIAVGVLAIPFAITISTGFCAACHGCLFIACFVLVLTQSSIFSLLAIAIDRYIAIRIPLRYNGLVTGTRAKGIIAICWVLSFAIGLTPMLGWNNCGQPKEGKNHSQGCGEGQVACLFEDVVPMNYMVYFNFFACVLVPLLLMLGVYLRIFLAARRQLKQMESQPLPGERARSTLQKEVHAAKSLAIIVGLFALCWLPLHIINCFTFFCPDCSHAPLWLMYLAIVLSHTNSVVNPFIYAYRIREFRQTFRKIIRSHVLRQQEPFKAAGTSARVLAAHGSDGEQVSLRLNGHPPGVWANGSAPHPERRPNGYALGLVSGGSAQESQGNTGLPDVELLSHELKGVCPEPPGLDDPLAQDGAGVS

As for `N#Cc1ccc2ncc(-c3nn(CC(F)(F)F)c4cc(C(=O)N5CCCOCC5)ncc34)n2c1` [Compound 81, 3-[6-(1,4-Oxazepane-4-carbonyl)-1-(2,2,2-trifluoro-ethyl)-1H-pyrazolo[4,3-c]pyridin-3-yl]-imidazo[1,2-a]pyridine-6-carbonitrile], the pIC50 at human A2B receptors is over 6.00; on human A2A receptors, over 7.00.

For `O=C(c1cc2c(cn1)c(-c1cnc3ccc(F)cn13)nn2CC(F)(F)F)N1CCCOCC1` [Compound 80, [3-(6-Fluoro-imidazo[1,2-a]pyridin-3-yl)-1-(2,2,2-trifluoro-ethyl)-1H-pyrazolo[4,3-c]pyridin-6-yl]-1,4-oxazepan-4-yl-methanone], the pIC50 was over 6.00 at human A2B receptors and over 7.00 at human A2A receptors.

Consider `O=C(c1cc2c(cn1)c(-c1coc3ccccc13)nn2CC(F)(F)F)N1CCOCC(F)(F)C1` [Compound 217], for which the pIC50 at human A2B receptors and on human A2A receptors was over 7.00 in each case.

On to `COCn1nc(-c2cnc3ccc(F)cn23)c2cnc(C(=O)N3CCCCCC3)cc21` [Compound 6, Azepan-1-yl-[3-(6-fluoro-imidazo[1,2-a]pyridin-3-yl)-1-methoxymethyl-1H-pyrazolo[4,3-c]pyridin-6-yl]-methanone], for which the pIC50 on human A2B receptors is over 6.00; on human A2A receptors, over 7.00.

Regarding `COCC1CCCN1C(=O)c1cc2c(cn1)c(-c1coc3ccccc13)nn2CS(C)(=O)=O` (stereo not drawn) [Compound 34, (3-Benzofuran-3-yl-1-methanesulfonylmethyl-1H-pyrazolo[4,3-c]pyridin-6-yl)-(2-methoxymethyl-pyrrolidin-1-yl)-methanone], the pIC50 at human A2B receptors is over 6.00; on human A2A receptors, over 7.00.

Take `O=C(c1cc2c(cn1)c(-c1cnc3c(F)cc(F)cn13)nn2CC(F)(F)F)N1CC2COC(C2)C1` (stereo not drawn) [Compound 199, [3-(6,8-Difluoro-imidazo[1,2-a]pyridin-3-yl)-1-(2,2,2-trifluoro-ethyl)-1H-pyrazolo[4,3-c]pyridin-6-yl]-(6-oxa-3-aza-bicyclo[3.2.1]oct-3-yl)-methanone]: the pIC50 was over 6.00 on human A2B receptors and over 7.00 on human A2A receptors.

On to `CC(C)C1CC(O)CCN1C(=O)c1cc2c(cn1)c(-c1cnc3c(F)cc(F)cn13)nn2CC(F)(F)F` (stereo not drawn) [Compound 141, [3-(6,8-Difluoro-imidazo[1,2-a]pyridin-3-yl)-1-(2,2,2-trifluoro-ethyl)-1H-pyrazolo[4,3-c]pyridin-6-yl]-(4-hydroxy-2-isopropyl-piperidin-1-yl)-methanone], for which the pIC50 at human A2B receptors was over 6.00; at human A2A receptors, over 7.00.

`O=C(c1cc2c(cn1)c(-c1cnc3ccc(F)cn13)nn2CCF)N1CCCCCC1` [Compound 4, Azepan-1-yl-[1-(2-fluoro-ethyl)-3-(6-fluoro-imidazo[1,2-a]pyridin-3-yl)-1H-pyrazolo[4,3-c]pyridin-6-yl]-methenone]: the pIC50 at human A2B receptors was over 6.00; at human A2A receptors, over 7.00.

Turning to `O=C(c1cc2c(cn1)c(-c1cnc3c(F)cc(F)cn13)nn2CC(F)(F)F)N1CCOCC(O)C1` (stereo not drawn) [Compound 193, [3-(6,8-Difluoro-imidazo[1,2-a]pyridin-3-yl)-1-(2,2,2-trifluoro-ethyl)-1H-pyrazolo[4,3-c]pyridin-6-yl]-(6-hydroxy-1,4-oxazepan-4-yl)-methanone], the figures for the pIC50 on human A2B receptors and at human A2A receptors were over 6.00 and over 7.00, respectively.

Consider `[2H]C1([2H])CCOCCN1C(=O)c1cc2c(cn1)c(-c1cnc3c(F)cc(F)cn13)nn2CC(F)(F)F` [Compound 190, [3-(6,8-Difluoro-imidazo[1,2-a]pyridin-3-yl)-1-(2,2,2-trifluoro-ethyl)-1H-pyrazolo[4,3-c]pyridin-6-yl]-1,4-oxazepan-5,5-dideuterio-4-yl-methanone], for which the pIC50 at human A2B receptors and on human A2A receptors was over 7.00 throughout.

As for `O=C(c1cc2c(cn1)c(-c1cnc3ccc(Cl)cn13)nn2CC(F)(F)F)N1CCCCCC1` [Compound 48, Azepan-1-yl-[3-(6-chloro-imidazo[1,2-a]pyridin-3-yl)-1-(2,2,2-trifluoro-ethyl)-1H-pyrazolo[4,3-c]pyridin-6-yl]-methanone], the values for the pIC50 on human A2B receptors and at human A2A receptors were over 6.00 and over 7.00, respectively.

On to `NC(=O)Cn1nc(-c2coc3ccccc23)c2cnc(C(=O)N3CCCOCC3)cc21` [Compound 105, 2-[3-Benzofuran-3-yl-6-(1,4-oxazepane-4-carbonyl)-pyrazolo[4,3-c]pyridin-1-yl]-acetamide], for which the pIC50 on human A2B receptors is over 6.00; on human A2A receptors, over 7.00.

Consider `O=C(c1cc2c(cn1)c(-c1cnc3c(F)cc(F)cn13)nn2CC(F)(F)F)N1CC2CCC(C1)C2O` (stereo not drawn) [Compound 170, [3-(6,8-Difluoro-imidazo[1,2-a]pyridin-3-yl)-1-(2,2,2-trifluoro-ethyl)-1H-pyrazolo[4,3-c]pyridin-6-yl]-(8-exo-hydroxy-3-aza-bicyclo[3.2.1]oct-3-yl)-methanone], for which the pIC50 was over 6.00 on human A2B receptors and over 7.00 on human A2A receptors.

In the case of `NC(=O)c1ccc2ncc(-c3nn(CC(F)(F)F)c4cc(C(=O)N5CC6CCC(C5)O6)ncc34)n2c1` [Compound 247, 3-[6-(8-Oxa-3-aza-bicyclo[3.2.1]octane-3-carbonyl)-1-(2,2,2-trifluoro-ethyl)-1H-pyrazolo[4,3-c]pyridin-3-yl]-imidazo[1,2-a]pyridine-6-carboxylic acid amide], the pIC50 on human A2B receptors was over 6.00; at human A2A receptors it was over 7.00.

Turning to `O=C(c1cc2c(cn1)c(-c1cnc3c(F)cc(F)cn13)nn2CC(F)(F)F)N1CC2CCC(C2)C1` [Compound 139, (3-Aza-bicyclo[3.2.1]oct-3-yl)-[3-(6,8-difluoro-imidazo[1,2-a]pyridin-3-yl)-1-(2,2,2-trifluoro-ethyl)-1H-pyrazolo[4,3-c]pyridin-6-yl]-methanone], the pIC50 at human A2B receptors and at human A2A receptors was over 7.00 in each case.

With `Cn1nc(-c2cnc3ccc(F)cn23)c2cnc(C(=O)N3CCCCCC3)cc21` [Compound 41, Azepan-1-yl-[3-(6-fluoro-imidazo[1,2-a]pyridin-3-yl)-1-methyl-1H-pyrazolo[4,3-c]pyridin-6-yl]-methanone], the pIC50 at human A2B receptors is over 6.00; at human A2A receptors it was over 7.00.

As to `O=C(c1cc2c(cn1)c(-c1cnc3c(F)cc(F)cn13)nn2CC(F)(F)F)N1CCCS(=O)(=O)CC1` [Compound 180, [3-(6,8-Difluoro-imidazo[1,2-a]pyridin-3-yl)-1-(2,2,2-trifluoro-ethyl)-1H-pyrazolo[4,3-c]pyridin-6-yl]-1,4-thiazepan-1,1-dioxide-4-yl-methanone], the figures for the pIC50 at human A2B receptors and on human A2A receptors were over 6.00 and over 7.00, respectively.

Regarding `O=C(c1cc2c(cn1)c(-c1coc3ccccc13)nn2CC(F)F)N1CCCOCC1` [Compound 103, [3-Benzofuran-3-yl-1-(2,2-difluoro-ethyl)-1H-pyrazolo[4,3-c]pyridin-6-yl]-1,4-oxazepan-4-yl-methanone], the pIC50 was over 6.00 at human A2B receptors and over 7.00 on human A2A receptors.

For the molecule `O=C(c1cc2c(cn1)c(-c1cnc3c(F)cc(F)cn13)nn2CC(F)(F)F)N1CCC(C(F)F)CC1` [Compound 173, [3-(6,8-Difluoro-imidazo[1,2-a]pyridin-3-yl)-1-(2,2,2-trifluoro-ethyl)-1H-pyrazolo[4,3-c]pyridin-6-yl]-(4-difluoromethyl-piperidin-1-yl)-methanone], the values for the pIC50 at human A2B receptors and at human A2A receptors were over 6.00 and over 7.00, respectively.

Turning to `O=C1CN(C(=O)c2cc3c(cn2)c(-c2cnc4c(F)cc(F)cn24)nn3CC(F)(F)F)CCCN1` [Compound 201, 4-[3-(6,8-Difluoro-imidazo[1,2-a]pyridin-3-yl)-1-(2,2,2-trifluoro-ethyl)-1H-pyrazolo[4,3-c]pyridine-6-carbonyl]-1,4-diazepan-2-one], the pIC50 at human A2B receptors is over 6.00; on human A2A receptors it was over 7.00.

With `O=C(c1cc2c(cn1)c(-c1c[nH]c3ccccc13)nn2CC(F)(F)F)N1CCCCCC1` [Compound 91, Azepan-1-yl-[3-(1H-indol-3-yl)-1-(2,2,2-trifluoro-ethyl)-1H-pyrazolo[4,3-c]pyridin-6-yl]-methanone], the pIC50 at human A2B receptors and on human A2A receptors was over 7.00 throughout.

With `O=C(c1cc2c(cn1)c(-c1cnc3c(F)cc(F)cn13)nn2CC(F)(F)F)N1C2CCC1CC(O)C2` (stereo not drawn) [Compound 171, [3-(6,8-Difluoro-imidazo[1,2-a]pyridin-3-yl)-1-(2,2,2-trifluoro-ethyl)-1H-pyrazolo[4,3-c]pyridin-6-yl]-(3-exo-hydroxy-8-aza-bicyclo[3.2.1]oct-8-yl)-methanone], the pIC50 on human A2B receptors (recombinant HEK293 cells expressing human A2B receptor, agonist NECA, cAMP HTRF, 15 min incubation) is over 6.00; on human A2A receptors (recombinant HEK293 cells expressing human A2A receptor, agonist NECA, cAMP HTRF, 15 min incubation), over 7.00.

Consider `C[C@@H]1COC[C@H](C)N1C(=O)c1cc2c(cn1)c(-c1cnc3c(F)cc(F)cn13)nn2CC(F)(F)F` [Compound 183, Cis-[3-(6,8-Difluoro-imidazo[1,2-a]pyridin-3-yl)-1-(2,2,2-trifluoro-ethyl)-1H-pyrazolo[4,3-c]pyridin-6-yl]-(3,5-dimethyl-morpholin-4-yl)-methanone], for which the pIC50 at human A2B receptors was over 6.00; on human A2A receptors it was over 7.00.

Consider `CS(=O)(=O)Cn1nc(-c2coc3ccccc23)c2cnc(C(=O)N3CCC(O)CC3)cc21` [Compound 36, (3-Benzofuran-3-yl-1-methanesulfonylmethyl-1H-pyrazolo[4,3-c]pyridin-6-yl)-(4-hydroxy-piperidin-1-yl)-methanone], for which the pIC50 at human A2B receptors and at human A2A receptors was over 7.00 throughout.

These data come from patent US20210380606A1, “5-AZAINDAZOLE DERIVATIVES AS ADENOSINE RECEPTOR ANTAGONISTS” (Merck Patent GmbH, priority 2018, published 2021).
